US8946413B2 (Pfizer Inc., priority 2008, dated 2015)
Where two headings read alike, the source gives them in different places.

Biological target: T1, CCR2 (Homo sapiens, UniProt P41597)
T1 construct: (leukophoresis pack); host or cells: human peripheral blood mononuclear cells (PBMCs) from a normal human leukophoresis pack
Test: hCCR2 (125-I hMCP-1) small molecule binding assay on human PBMCs
Settings: 125I-MCP-1, human PBMCs
From the text: The CCR2 antagonist activity of compounds of the invention can be reported as the inhibitor concentration required for 50% inhibition (IC50 values) of specific binding in receptor binding assays using 125I-labeled MCP-1, as ligand, and Peripheral Blood Mononuclear Cells (PBMCs) prepared from normal human whole blood via density gradient centrifugation. Specific binding is defined as the total binding (e.g., total cpm on filters) minus the non-specific binding. Non-specific binding is defined as the amount of cpm still defected in the presence of excess unlabeled competitor (e.g., MCP-1),
Human PBMCs were used to test compounds of the invention in a binding assay. For example, 200,000 to 500,000 cells were incubated with 0.1 to 0.2 nM 125I-labeled MCP-1, with or without unlabeled competitor (10 nM MCP-1) or various concentrations of compounds to be tested. 125I-labeled MCP-1, were prepared by suitable methods or purchased from commercial vendors (Perkin Elmer, Boston Mass.). The binding reactions were performed in 50 to 250 μL of a binding buffer consisting of […] pH 7.2, and 0.1% BSA (bovine serum albumin), for 30 minutes at room temperature. The binding reactions were terminated by harvesting the membranes by rapid filtration through glass fiber filters (Perkin Elmer) which was presoaked in 0.3% polyethyleneimine or Phosphate Buffered Saline (PBS). The filters were rinsed with approximately 600 μL of binding buffer containing, 0.5 M NaCl or PBS, then dried, and the amount of bound radioactivity was determined by counting on a Gamma Counter (Perkin Elmer).
More specifically, the following assay may be employed to determine IC50 values for the compounds of the present invention.
hCCR2 (125-I hMCP-1) Small Molecule Binding Assay
Normal human leukophoresis pack contents, available from Biological Specialty Corporation, Colmar, Pa., is diluted 1:1 with PBS, divided into 50 ml conical tubes (preferably less than 40 mls per tube), and underlayed with 10 mls of Ficoll-Paque PLUS (GE Healthcare 17-1440-02). The tubes are centrifuged at 2800 rpm in a clinical centrifuge at room temperature for 30 mins, with no brake. The plasma layer is suctioned, and the buffycoat layer is collected. The collected buffycoat layer is washed twice with 50 mls PBS, and centrifuged at 1400 rpm with brake. The cells are counted. The cells are then diluted to 1×10^7 cells per ml in binding buffer.
96 well plates (such as, for example, Millipore MultiScreen96 plates) are pre-wet with about 100 μl binding buffer (RPMI+0.1% BSA+20 mM HEPES), and blotted just prior to compound addition.
5 μl of 50 μM test compounds in 100% DMSO are dotted onto U-bottom polypropylene 96-well plates.
245 μl per well of Binding Buffer is added to each well for 1 μM compound concentration in 2% DMSO.
50 μl of 1 μM compound is transferred to pre-wetted Millipore plates. 50 μl per well of 1×10E7 cells per ml of freshly prepared human PBMCs are added.
The samples are pre-incubated at room temperature for 30 minutes or 1 hour.
50 μl of 450 pM 125-I-hMCP-1 (Perkin-Elmer/NEN cat#NEX332025UC) is added for a final concentration 125-I-hMCP-1 of 150 pM per well.
The final test compound concentration is 0.333 uM in 150 μl total volume with 0.67% DMSO in all wells. Controls for this assay consist of 0% inhibition and 100% inhibition with 1 uM hMCP-1 (saturating conditions). All wells are run in duplicate. Controls may be in replicates of eight.
The samples are incubated at room temperature for 30 minutes.
The buffer is suctioned through the Millipore plates. The plates are washed three times with Wash Buffer (PRMI+0.1% BSA+20 mM HEPES+ 0.4 M NaC).
The plate underdrain is removed. The plate filters are allowed to dry. The filters are then punched out into plastic tubes.
Finally, the sample is counted an a Gamma Counter.
All IC50 plates were repeated for an n=2.
The following table summarizes the IC50 values identified through the described assay.

[1] = 30 min preincubation, read-out: IC50 (nM) 30 min preinc
[2] = 1 hr preincubation, read-out: IC50 (nM) 1 hr preinc

T1 sequence (P41597 whole entry): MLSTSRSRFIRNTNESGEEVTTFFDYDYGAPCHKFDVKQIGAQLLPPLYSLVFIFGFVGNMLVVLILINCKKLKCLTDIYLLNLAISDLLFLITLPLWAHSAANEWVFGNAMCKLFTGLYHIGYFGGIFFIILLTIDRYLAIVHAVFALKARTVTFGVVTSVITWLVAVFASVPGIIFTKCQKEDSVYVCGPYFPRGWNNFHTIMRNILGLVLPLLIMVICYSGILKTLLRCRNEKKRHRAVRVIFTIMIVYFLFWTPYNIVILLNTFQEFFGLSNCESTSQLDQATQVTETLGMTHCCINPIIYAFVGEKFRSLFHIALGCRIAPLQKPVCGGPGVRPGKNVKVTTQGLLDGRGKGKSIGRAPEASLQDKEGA

| SMILES | IC50 [1] | IC50 [2] |
| --- | --- | --- |
| CO[C@@H]1COCC[C@@H]1N[C@@H]1CC[C@](CC(F)(F)F)(C(=O)N2C[C@@H]3C[C@H]2CN3c2cc(C(F)(F)F)ccn2)C1 [Example 33, 1,5-anhydro-2,3-dideoxy-4-O-methyl-3-{[(1R,3S)-3-(2,2,2-trifluoroethyl)-3-({(1S,4S)-5-[4-(trifluoromethyl)pyridin-2-yl]-2,5-diazabicyclo[2.2.1]hept-2-yl}carbonyl)cyclopentyl]amino}-D-erythro-pentitol] | 57.3 nM | 11.7 nM |
| CO[C@@H]1COCC[C@@H]1N[C@@H]1CC[C@](CC(F)(F)F)(C(=O)N2C[C@@H]3C[C@H]2CN3c2ccnc(C(F)(F)F)c2)C1 [Example 34, 1,5-anhydro-2,3-dideoxy-4-O-methyl-3-{[(1R,3S)-3-(2,2,2-trifluoroethyl)-3-({(1S,4S)-5-[2-(trifluoromethyl)pyridin-4-yl]-2,5-diazabicyclo[2.2.1]hept-2-yl}carbonyl)cyclopentyl]amino}-D-erythro-pentitol] | 66.5 nM | 6.94 nM |
| CO[C@@H]1COCC[C@@H]1N[C@@H]1CC[C@](CC(F)(F)F)(C(=O)N2C[C@@H]3C[C@H]2CN3c2nccc(C(F)(F)F)n2)C1 [Example 35, 1,5-anhydro-2,3-dideoxy-4-O-methyl-3-{[(1R,3S)-3-(2,2,2-trifluoroethyl)-3-({(1S,4S)-5-[4-(trifluoromethyl)pyrimidin-2-yl]-2,5-diazabicyclo[2.2.1]hept-2-yl}carbonyl)cyclopentyl]amino}-D-erythro-pentitol] | 28.4 nM | 5.52 nM |
| CO[C@@H]1COCC[C@@H]1N[C@@H]1CC[C@](CC(F)(F)F)(C(=O)N2C[C@@H]3C[C@H]2CN3c2cccc(C(F)(F)F)n2)C1 [Example 36, 1,5-anhydro-2,3-dideoxy-4-O-methyl-3-{[(1R,3S)-3-(2,2,2-trifluoroethyl)-3-({(1S,4S)-5-[6-(trifluoromethyl)pyridin-2-yl]-2,5-diazabicyclo[2.2.1]hept-2-yl}carbonyl)cyclopentyl]amino}-D-erythro-pentitol] | 12.6 nM | 2.19 nM |
| CO[C@@H]1COCC[C@@H]1N[C@@H]1CC[C@](CC(F)(F)F)(C(=O)N2C[C@@H]3C[C@H]2CN3c2cncc(C(F)(F)F)n2)C1 [Example 37] |  | 3.68 nM |
| CO[C@@H]1COCC[C@@H]1N[C@@H]1CC[C@](CC(F)(F)F)(C(=O)N2C[C@@H]3C[C@H]2CN3c2ccnc(C(F)(F)F)n2)C1 [Example 38, 1,5-anhydro-2,3-dideoxy-4-O-methyl-3-{[(1R,3S)-3-(2,2,2-trifluoroethyl)-3-({(1S,4S)-5-[2-(trifluoromethyl)pyrimidin-4-yl]-2,5-diazabicyclo[2.2.1]hept-2-yl}carbonyl)cyclopentyl]amino}-D-erythro-pentitol] | 68.7 nM | 2.02 nM |
| CO[C@@H]1COCC[C@@H]1N[C@@H]1CC[C@](CC(F)(F)F)(C(=O)N2C[C@@H]3C[C@H]2CN3c2cc(C(F)(F)F)cnn2)C1 [Example 39, 1,5-anhydro-2,3-dideoxy-4-O-methyl-3-{[(1R,3S)-3-(2,2,2-trifluoroethyl)-3-({(1S,4S)-5-[5-(trifluoromethyl)pyridazin-3-yl]-2,5-diazabicyclo[2.2.1]hept-2-yl}carbonyl)cyclopentyl]amino}-D-erythro-pentitol] | 82.9 nM | 5.81 nM |
| CO[C@@H]1COCC[C@@H]1N[C@@H]1C=C[C@@](C(=O)N2C[C@@H]3C[C@H]2CN3c2cc(C(F)(F)F)ccn2)(C(C)C)C1 [Example 40, 1,5-anhydro-2,3-dideoxy-3-{[(1S,4S)-4-isopropyll-4-({(1S,4S)-5-[4-(trifluoromethyl)pyridin-2-yl]-2,5-diazabicyclo[2.2.1]hept-2-yl}carbonyl)cyclopent-2-en-1-yl]amino}-4-O-methyl-D-erythro-pentitol] | 18.3 nM |  |
| CO[C@@H]1COCC[C@@H]1N[C@@H]1CC[C@](CC(F)(F)F)(C(=O)N2C[C@@H]3C[C@H]2CN3C(=O)OC(C)(C)C)C1 [Example 44, 1,5-anhydro-3-{[(1R,3S)-3-{[(1S,4S)-5-(tert-butoxycarbonyl)-2,5-diazabicyclo[2.2.1]hept-2-yl]carbonyl}-3-(2,2,2-trifluoroethyl)cyclopentyl]amino}-2,3-dideoxy-4-O-methyl-D-erythro-pentitol] |  | 8.1 nM |

Second part, the molecule after the results:

| IC50 [1] | IC50 [2] | SMILES |
| --- | --- | --- |
| 63.6 nM |  | CO[C@@H]1COCC[C@@H]1N[C@@H]1C=C[C@@](C(=O)N2C[C@@H]3C[C@H]2CN3c2nccc(C(F)(F)F)n2)(C(C)C)C1 [Example 41, 1,5-anhydro-2,3-dideoxy-3-{[(1S,4S)-4-isopropyll-4-({(1S,4S)-5-[4-(trifluoromethyl)pyrimidin-2-yl]-2,5-diazabicyclo[2.2.1]hept-2-yl}carbonyl)cyclopent-2-en-1-yl]amino}-4-O-methyl-D-erythro-pentitol] |
| 70.9 nM |  | CO[C@@H]1COCC[C@@H]1N[C@@H]1C=C[C@@](C(=O)N2C[C@@H]3C[C@H]2CN3c2cccc(C(F)(F)F)n2)(C(C)C)C1 [Example 42, 1,5-anhydro-2,3-dideoxy-3-{[(1S,4S)-4-isopropyll-4-({(1S,4S)-5-[6-(trifluoromethyl)pyridin-2-yl]-2,5-diazabicyclo[2.2.1]hept-2-yl}carbonyl)cyclopent-2-en-1-yl]amino}-4-O-methyl-D-erythro-pentitol] |
| 47.3 nM |  | CO[C@@H]1COCC[C@@H]1N[C@@H]1C=C[C@@](C(=O)N2C[C@@H]3C[C@H]2CN3c2cncc(C(F)(F)F)n2)(C(C)C)C1 [Example 43, 1,5-anhydro-2,3-dideoxy-3-{[(1S,4S)-4-isopropyll-4-({(1S,4S)-5-[6-(trifluoromethyl)pyrazin-2-yl]-2,5-diazabicyclo[2.2.1]hept-2-yl}carbonyl)cyclopent-2-en-1-yl]amino}-4-O-methyl-D-erythro-pentitol] |
| 25.3 nM |  | CO[C@@H]1COCC[C@@H]1N[C@@H]1CC[C@@](C(=O)N2C[C@@H]3C[C@H]2CN3c2cccc(C(F)(F)F)n2)(C2(O)CCC2)C1 [Example 45, 1,5-anhydro-2,3-dideoxy-3-{[(1R,3S)-3-(1-hydroxycyclobutyl)-3-({(1S,4S)-5-[6-(trifluoromethyl)pyridin-2-yl]-2,5-diazabicyclo[2.2.1]hept-2-yl}carbonyl)cyclopentyl]amino}-4-O-methyl-D-erythro-pentitol] |
| 3.19 nM |  | CO[C@@H]1COCC[C@@H]1N[C@@H]1CC[C@@](C(=O)N2C[C@@H]3C[C@H]2CN3c2cc(C(F)(F)F)ccn2)(C2(O)CCC2)C1 [Example 46, 1,5-anhydro-2,3-dideoxy-3-{[(1R,3S)-3-(1-hydroxycyclobutyl)-3-({(1S,4S)-5-[4-(trifluoromethyl)pyridin-2-yl]-2,5-diazabicyclo[2.2.1]hept-2-yl}carbonyl)cyclopentyl]amino}-4-O-methyl-D-erythro-pentitol] |
| 6.16 nM |  | CO[C@@H]1COCC[C@@H]1N[C@@H]1CC[C@@](C(=O)N2C[C@@H]3C[C@H]2CN3c2nccc(C(F)(F)F)n2)(C2(O)CCC2)C1 [Example 47, 1,5-anhydro-2,3-dideoxy-3-{[(1R,3S)-3-(1-hydroxycyclobutyl)-3-({(1S,4S)-5-[4-(trifluoromethyl)pyrimidin-2-yl]-2,5-diazabicyclo[2.2.1]hept-2-yl}carbonyl)cyclopentyl]amino}-4-O-methyl-D-erythro-pentitol] |
